From patent US9802990B2, “Functional peptides for obesity disorders” (DANONE, S.A., priority 2013, dated 2017) come the findings set out here.

For data set [1], the target named is PLA2 (pancreatic phospholipase A2) (Homo sapiens, UniProt P04054). Nature of the data set: PLA2 inhibition assay by HPLC with DOPC as substrate. The data set is classed as biochemical. The protocol:
Inhibition of PLA2 enzyme was determined by High Performance Liquid Chromatography (HPLC) using 1,2-dioleoyl-sn-glycero-3-phosphocholine (DOPC) as substrate as described by Singh et al. (A rapid isocratic high-performance liquid chromatography method for determination of cholesterol and 1,2-dioleoyl-sn-glycero-3-phosphocholine. Journal of Chromatography (2005); 1073:347-353). Waters 2695 HPLC with Waters 2996 Photodiode detector Array and a C8 column Hypersil BDS (250×4.6 mm, […]) were used carrying out an eluent isocratic method formed by a mixture of ammonium phosphate buffer 50 mM pH 2.7:methanol (15:85, v/v).

Data set [2] relates to C. elegans wild type strain N2. Nature of the data set: C. elegans body fat reduction, Nile Red staining. The class given is in vivo, Caenorhabditis elegans. The conditions noted are these: for % Fluorescence Reduction: nematodes fed NG with peptides alone or in Savia soy fermented product, alone or mixed, 1 μg/mL final concentration, Nile Red; for % Fluorescence Reduction C. elegans: synthesized peptides at 1 μg/mL of final concentration. The protocol:
The ability to reduce body fat content in the nematode C. elegans was analyzed in a group of 5 peptide extracts previously obtained from glycinin (see Table 4). These samples were selected by their high effect on PL and PLA2 in vitro inhibition. Specifically, 5 peptide extracts were selected from the PLA2 inhibition assay (M20G, M5G, M31G, M27G and M29G). Body fat content was analyzed in the C. elegans wild type strain N2 by Red Nile dying of living nematodes. Experiments were carried out with age-synchronized populations, starting from egg-stage to young adult stage (3-day adults). During the experiments, worms were cultured in the NGM agar plates as control condition, NGM with the corresponding peptide extracts (100 μL/plate) and NGM with 6 μg/mL of Orlistat as positive control. Nile Red was added on top of the NG plates already seeded with Escherichia coli OP50 strain to a final concentration of 0.05 μg/ml. After incubation at 20° C., young adult worms (60 worms per condition) were taken to measure the in vivo fluorescence in a VersaFluor™ Fluorometer System. Fluorescence obtained in treated worms was calculated from fluorescence of worms fed in control conditions (reference sample). Experiments were carried out by duplicate.
From these purified fractions, a total of 11 peptides were selected to be synthesized and evaluated in vivo in the obesity model of C. elegans (Table 9). All peptides were evaluated at 1 μg/mL of final concentration.
We selected 5 peptides obtained from hydrolysis of glycinin with strain 6 (P8a, P6a, P14c, P16f, P14b) The peptides from glycinin were added to a soy fermented product (Savia® from Danone) both alone or mixed at final concentration of 1 μg/mL. Nematodes were fed with these products and then total lipids were quantified by Nile Red staining.

The nature of data set [3]: In vitro enzymatic digestion model of the digestive tract (pepsin, pancreatin, bile), HPLC. The note with it: for metabolised at 0.5 h / metabolised at 2 h / metabolised at 0.25 h / metabolised at 1 h / metabolised at 5 min: read-out: Degradation (%); for degradation in the in vitro digestion model (in words): HPLC, completely degraded = at the beginning of the intestinal phase, resistant ones finally degraded at the end; for metabolised at 0.25 h: Intestinal phase 15 min.; for metabolised at 1 h: Intestinal phase 60 min.; for metabolised at 5 min: Oral phase 5 min. The class given is in vitro ADME. The source says:
An in vitro enzymatic digestion model of an in vivo digestive tract was developed for mimicking the physiological conditions to check and certify that each selected peptide was differently degraded throughout the gastro-intestinal tract by the digestive process. Pepsin, pancreatin and bile concentrations were optimized using a published experimental design (Granado-Lorencio et al (2007). J. Agri. Food. Chem., 55, 6387-6394).

Data set [4] has as its target T1, PL (pancreatic lipase) (Sus scrofa, UniProt P00591).
T1 sequence (P00591 1-450): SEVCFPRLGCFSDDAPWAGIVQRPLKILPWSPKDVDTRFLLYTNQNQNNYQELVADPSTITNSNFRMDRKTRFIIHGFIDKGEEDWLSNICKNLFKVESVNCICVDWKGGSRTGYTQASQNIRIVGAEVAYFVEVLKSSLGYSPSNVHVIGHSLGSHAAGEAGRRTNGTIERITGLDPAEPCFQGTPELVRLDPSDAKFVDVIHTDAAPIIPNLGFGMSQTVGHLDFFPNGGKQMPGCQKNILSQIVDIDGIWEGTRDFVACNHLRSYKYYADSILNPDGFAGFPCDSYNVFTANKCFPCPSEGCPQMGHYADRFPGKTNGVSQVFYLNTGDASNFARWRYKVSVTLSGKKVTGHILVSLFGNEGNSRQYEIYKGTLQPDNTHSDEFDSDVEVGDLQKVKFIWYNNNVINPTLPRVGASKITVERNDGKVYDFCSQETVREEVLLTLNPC
Kind of data set: PL inhibition assay with 4-methyl umbelliferyl oleate (4MUO), fluorescence. The class given is biochemical. The note with it: synthesized peptides. The protocol:
Inhibition of PL was determined using 4-methyl umbelliferyl oleate (4MUO) as substrate as described by Sugiyama et al. (Oligomeric procyanidins in apple polyphenol are main active components for inhibition of pancreatic lipase and triglyceride absorption. J Agric Food Chem (2007); 55: 4604-4609) with some modifications. Aliquots of 25 μl of each peptide extract were incubated with 25 μl of PL solution (1 mg/ml) and preincubated for 10 minutes at 26° C. with stirring of 500 rpm. Reaction was initiated by adding 50 μl of 4MUO (0.1 mM) dissolved in Dulbecco's buffer. After incubation at 26° C. for 20 minutes with constant stirring (500 rpm) the reaction was stopped by adding 100 μl of 0.1 M sodium citrate buffer (pH 4.2). The amount of 4-methyl umbelliferone released by the enzyme was determined by fluorescence. Peptide extracts were used as inhibitors in the enzymatic assay but had to be diluted 1/20 or 1/50 because of the interference between the fluorescence and the buffer containing the peptides.

Like-named read-outs stand apart in the source and are kept apart here. Where no end group is shown, it is not given here.

PLA2 (pancreatic phospholipase A2), sequence (P04054 23-148, species assumed): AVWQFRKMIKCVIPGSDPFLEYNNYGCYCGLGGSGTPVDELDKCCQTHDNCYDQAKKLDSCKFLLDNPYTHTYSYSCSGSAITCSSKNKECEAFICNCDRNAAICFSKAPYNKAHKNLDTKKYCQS

“QGENEGEDKGAIVT [Peptide P14b, QGENEGEDKGAIVT]”: the “Percentage of PLA2 inhibition” value in data set [1] (peptide 0.035 mg/ml) is 5.9 ± 5.0%; in data set [1] (peptide 0.35 mg/ml), 22.2 ± 5.6%; in data set [1] (peptide 2 mg/ml), 23.8 ± 5.5%; in data set [1] (peptide 3.5 mg/ml) it was 28.8 ± 3.1%. The “% Fluorescence Reduction” value in data set [2] is recorded as 30.25 ± 4.2%. Further, the “% Fluorescence Reduction C. elegans” value in data set [2] is 35.30 ± 6.1%. The metabolised at 0.5 h in data set [3] (Gastric phase 30 min.) came out at 6.7%; in data set [3] (Intestinal phase 30 min.), 48.9%. For the same substance, the figures for the metabolised at 2 h in data set [3] (Gastric phase 120 min.) and in data set [3] (Intestinal phase 120 min.) were 8.7% and 100%, respectively. Moreover, the “degradation in the in vitro digestion model (in words)” value in data set [3] is reported as “resistant until the end of the process”. In data set [3], the metabolised at 0.25 h was 36.7%. For the same substance, in data set [3], the metabolised at 1 h was 68.8%. The metabolised at 5 min in data set [3] came to 6%. This substance also gave an IC50 in data set [4] of 346 µM.
Consider SDNFEY [Peptide P6a, SDNFEY], for which the “Percentage of PLA2 inhibition” value in data set [1] (peptide 0.035 mg/ml) was determined as 10.6 ± 5.0%; in data set [1] (peptide 0.35 mg/ml) it was 12.1 ± 4.0%; in data set [1] (peptide 2 mg/ml), 24.5 ± 1.4%; in data set [1] (peptide 3.5 mg/ml), 31.9 ± 5.5%. The “% Fluorescence Reduction” value in data set [2] stood at 36.2 ± 4.1%. The “% Fluorescence Reduction C. elegans” value in data set [2] was 40.90 ± 11.6%. The metabolised at 0.5 h in data set [3] (Gastric phase 30 min.) is 31%; in data set [3] (Intestinal phase 30 min.), 100%. Also, the metabolised at 2 h stood at 66.9% in data set [3] (Gastric phase 120 min.) and 100% in data set [3] (Intestinal phase 120 min.). Besides, the metabolised at 0.25 h in data set [3] is 100%. Further, in data set [3], the metabolised at 1 h came out at 100%. In addition, in data set [3], the metabolised at 5 min is 23.7%. In data set [4], this substance showed a half-inhibitory concentration (IC50) of 55.6 µM.
For the substance SVIKPPTD [Peptide P8a, SVIKPPTD], the “Percentage of PLA2 inhibition” value was 12.7 ± 6.1% in data set [1] (peptide 0.035 mg/ml), 12.9 ± 3.9% in data set [1] (peptide 0.35 mg/ml), 26.0 ± 6.4% in data set [1] (peptide 2 mg/ml) and 20.1 ± 7.7% in data set [1] (peptide 3.5 mg/ml). Moreover, in data set [2], the “% Fluorescence Reduction” value is recorded as 41.7 ± 4.02%. The “% Fluorescence Reduction C. elegans” value in data set [2] worked out at 44.67 ± 10.5%. Moreover, the “Degradation (%)” value in data set [3] (Gastric phase 30 min.) is given as −1.3%; in data set [3] (Gastric phase 120 min.), −1.0%. Also, the “degradation in the in vitro digestion model (in words)” value in data set [3] is listed as “resistant until the end of the process”. In addition, in data set [3], the metabolised at 0.25 h amounted to 51.2%. Besides, the metabolised at 0.5 h in data set [3] (Intestinal phase 30 min.) came out at 71.6%. For the same substance, the metabolised at 1 h in data set [3] is 90.7%. The metabolised at 2 h in data set [3] (Intestinal phase 120 min.) was found to be 100%. Besides, the metabolised at 5 min in data set [3] was 1.7%. In data set [4], half-maximal inhibition (IC50) required 68.9 µM.
